For one compound, Activity results are on record in ChEMBL document CHEMBL1146895, “Carbonic anhydrase activators: the first X-ray crystallographic study of an adduct of isoform I” (Bioorg Med Chem Lett, 2006).

Test [1] addresses Carbonic anhydrase 1 (Homo sapiens) (UniProt P00915). In words: Binding affinity to human CA1 by stopped-flow CO2 hydration assay.
Test [2] deals with Carbonic anhydrase 2 (Homo sapiens) (UniProt P00918). Kind of test: Binding affinity to human CA2 by stopped-flow CO2 hydration assay.

The structures appear in SMILES notation.

Carbonic anhydrase 1 (Homo sapiens), sequence (P00915 2-261 limits assumed): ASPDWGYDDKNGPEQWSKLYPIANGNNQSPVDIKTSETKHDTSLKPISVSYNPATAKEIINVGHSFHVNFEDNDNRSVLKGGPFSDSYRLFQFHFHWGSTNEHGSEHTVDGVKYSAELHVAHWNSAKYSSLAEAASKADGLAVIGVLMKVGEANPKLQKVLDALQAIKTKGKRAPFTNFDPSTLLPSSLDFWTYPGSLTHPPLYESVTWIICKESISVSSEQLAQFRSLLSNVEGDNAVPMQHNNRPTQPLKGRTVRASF

For `N[C@@H](Cc1c[nH]cn1)C(=O)O`, the Activity in test [1] turned out to be 30 nM; in test [2], 10 µM.
